Laboratory results taken from patent publication US20150105252A1, “SUBSTITUTED PYRAZOLES AS HERBICIDES” (E I DU PONT DE NEMOURS AND COMPANY, priority 2013, published 2015).

Key:
wheat [1] = test: Test A postemergence; assay type: in vivo, Triticum aestivum
Method in brief: (§1)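 Scoring was visual, on a scale where 100 means complete control and 0 means no effect, comparing treated with untreated plants around 10 days post-application. Compounds in surfactant-containing non-phytotoxic solvent were sprayed onto soil preemergence or onto one- to two-leaf seedlings (2–10 cm) postemergence.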

corn [2] = test: Test A postemergence; assay type: in vivo, Zea mays
Method in brief: as §1

crabgrass, large [3] = test: Test A postemergence; assay type: in vivo, Digitaria sanguinalis
Method in brief: as §1

velvetleaf [4] = test: Test A postemergence; assay type: in vivo, Abutilon theophrasti
Method in brief: as §1

foxtail, giant [5] = test: Test A postemergence; assay type: in vivo, Setaria faberii
Method in brief: as §1

rice = test: Test B flood; assay type: in vivo, Oryza sativa; conditions: 250 g ai/ha, visual rating on 0 to 100 scale (0 no effect, 100 complete control), 13 to 15 days
Method in brief: (§2)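 At two leaves, seedlings received the test compound via the paddy water, pots having been flooded 3 cm over the soil surface and kept so. Greenhouse-held for 13 to 15 days, then judged by eye against controls on a scale running 0 (no effect) to 100 (complete control).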

pigweed [6] = test: Test A preemergence; assay type: in vivo, Amaranthus retroflexus; conditions: preemergence; for Pigweed plant response rating (0 to 100 scale): 125 g ai/ha, visual injury approx. 10 days after treatment; for Pigweed plant response rating: 500 g ai/ha, visual injury after approx. 10 days, 0 to 100 scale (0 no effect, 100 complete control)
Method in brief: as §1

wheat [7] = test: Test A preemergence; assay type: in vivo, Triticum aestivum; conditions: preemergence; for Wheat plant response rating (0 to 100 scale): 125 g ai/ha, visual injury approx. 10 days after treatment; for Wheat plant response rating: 500 g ai/ha, visual injury after approx. 10 days, 0 to 100 scale (0 no effect, 100 complete control)
Method in brief: as §1

foxtail, giant [8] = test: Test A preemergence; assay type: in vivo, Setaria faberii; conditions: preemergence; for Foxtail, Giant plant response rating (0 to 100 scale): 125 g ai/ha, visual injury approx. 10 days after treatment; for Foxtail, Giant plant response rating: 500 g ai/ha, visual injury after approx. 10 days, 0 to 100 scale (0 no effect, 100 complete control)
Method in brief: as §1

corn [9] = test: Test A preemergence; assay type: in vivo, Zea mays; conditions: preemergence; for Corn plant response rating (0 to 100 scale): 125 g ai/ha, visual injury approx. 10 days after treatment; for Corn plant response rating: 500 g ai/ha, visual injury after approx. 10 days, 0 to 100 scale (0 no effect, 100 complete control)
Method in brief: as §1

morningglory [10] = test: Test A postemergence; assay type: in vivo, Ipomoea spp.
Method in brief: as §1

sedge, umbrella = test: Test B flood; assay type: in vivo, Cyperus difformis; conditions: 250 g ai/ha, visual rating on 0 to 100 scale (0 no effect, 100 complete control), 13 to 15 days
Method in brief: as §2

pigweed [11] = test: Test A postemergence; assay type: in vivo, Amaranthus retroflexus
Method in brief: as §1

velvetleaf [12] = test: Test A preemergence; assay type: in vivo, Abutilon theophrasti; conditions: preemergence; for Velvetleaf plant response rating (0 to 100 scale): 125 g ai/ha, visual injury approx. 10 days after treatment; for Velvetleaf plant response rating: 500 g ai/ha, visual injury after approx. 10 days, 0 to 100 scale (0 no effect, 100 complete control)
Method in brief: as §1

crabgrass, large [13] = test: Test A preemergence; assay type: in vivo, Digitaria sanguinalis; conditions: preemergence; for Crabgrass, Large plant response rating (0 to 100 scale): 125 g ai/ha, visual injury approx. 10 days after treatment; for Crabgrass, Large plant response rating: 500 g ai/ha, visual injury after approx. 10 days, 0 to 100 scale (0 no effect, 100 complete control)
Method in brief: as §1

ducksalad = test: Test B flood; assay type: in vivo, Heteranthera limosa; conditions: 250 g ai/ha, visual rating on 0 to 100 scale (0 no effect, 100 complete control), 13 to 15 days
Method in brief: as §2

morningglory [14] = test: Test A preemergence; assay type: in vivo, Ipomoea spp.; conditions: preemergence; for Morningglory plant response rating (0 to 100 scale): 125 g ai/ha, visual injury approx. 10 days after treatment; for Morningglory plant response rating: 500 g ai/ha, visual injury after approx. 10 days, 0 to 100 scale (0 no effect, 100 complete control)
Method in brief: as §1

barnyardgrass [15] = test: Test A preemergence; assay type: in vivo, Echinochloa crus-galli; conditions: preemergence
Method in brief: as §1

barnyardgrass [16] = test: Test B flood; assay type: in vivo, Echinochloa crus-galli; conditions: 250 g ai/ha, visual rating on 0 to 100 scale (0 no effect, 100 complete control), 13 to 15 days
Method in brief: as §2

barnyardgrass [17] = test: Test A postemergence; assay type: in vivo, Echinochloa crus-galli
Method in brief: as §1

[18] = Postemergence, 500 g ai/ha, 0 to 100 scale (0 no effect, 100 complete control)
[19] = postemergence, 125 g ai/ha, about 10 days, visual rating on 0 to 100 scale (0 no effect, 100 complete control)
[20] = 125 g ai/ha, visual injury, 0 to 100 scale, approx. 10 days
[21] = 500 g ai/ha, visual injury after approx. 10 days, 0 to 100 scale (0 no effect, 100 complete control)

Row | Structure (SMILES) | Wheat plant response rating (wheat [1]; [18]) | Wheat plant response rating (wheat [1]; [19]) | Corn plant response rating (corn [2]; [18]) | Corn plant response rating (corn [2]; [19]) | Crabgrass, Large plant response rating (crabgrass, large [3]; [18]) | Crabgrass, Large plant response rating (crabgrass, large [3]; [19]) | Velvetleaf plant response rating (velvetleaf [4]; [18]) | Velvetleaf plant response rating (velvetleaf [4]; [19]) | Foxtail, Giant plant response rating (foxtail, giant [5]; [18]) | Foxtail, Giant plant response rating (foxtail, giant [5]; [19]) | Plant response rating, Rice (rice) | Pigweed plant response rating (0 to 100 scale) (pigweed [6]) | Pigweed plant response rating (pigweed [6]) | Wheat plant response rating (0 to 100 scale) (wheat [7]) | Wheat plant response rating (wheat [7]) | Foxtail, Giant plant response rating (0 to 100 scale) (foxtail, giant [8]) | Foxtail, Giant plant response rating (foxtail, giant [8]) | Corn plant response rating (0 to 100 scale) (corn [9]) | Corn plant response rating (corn [9]) | Morningglory plant response rating (morningglory [10]; [18]) | also measured
1 | CCc1cc(C(=O)NC2CC2)nn1Cc1nc(C(F)(F)F)no1 [Compound 163] | 0 | 0 | 30 | 0 | 70 | 20 | 80 | 50 | 80 | 10 | 0 | 30 | 100 | 0 | 10 | 20 | 70 | 0 | 0 | 90 | Morningglory plant response rating (morningglory [10]; [19]): 30; Plant response rating, Sedge, Umbrella (sedge, umbrella): 0; Pigweed plant response rating (pigweed [11]; [18]): 90; Pigweed plant response rating (pigweed [11]; [19]): 50; Velvetleaf plant response rating (0 to 100 scale) (velvetleaf [12]): 10; Velvetleaf plant response rating (velvetleaf [12]): 50; Crabgrass, Large plant response rating (0 to 100 scale) (crabgrass, large [13]): 50; Crabgrass, Large plant response rating (crabgrass, large [13]): 100; Plant response rating, Ducksalad (ducksalad): 0; Morningglory plant response rating (0 to 100 scale) (morningglory [14]): 0; Morningglory plant response rating (morningglory [14]): 70; Barnyardgrass plant response rating (barnyardgrass [15]; [20]): 10; Barnyardgrass plant response rating (barnyardgrass [15]; [21]): 60; Plant response rating, Barnyardgrass (barnyardgrass [16]): 0; Barnyardgrass plant response rating (barnyardgrass [17]; [18]): 40; Barnyardgrass plant response rating (barnyardgrass [17]; [19]): 10
2 | CCCNC(=O)c1cc(CC)n(Cc2nc(C(F)(F)F)no2)n1 [Compound 164] | 20 | 0 | 40 | 10 | 60 | 10 | 60 | 20 | 40 | 10 | 0 | 20 | 80 | 0 | 20 | 10 | 70 | 0 | 50 | 70 | Morningglory plant response rating (morningglory [10]; [19]): 50; Plant response rating, Sedge, Umbrella (sedge, umbrella): 0; Pigweed plant response rating (pigweed [11]; [18]): 40; Pigweed plant response rating (pigweed [11]; [19]): 20; Velvetleaf plant response rating (0 to 100 scale) (velvetleaf [12]): 0; Velvetleaf plant response rating (velvetleaf [12]): 10; Crabgrass, Large plant response rating (0 to 100 scale) (crabgrass, large [13]): 80; Crabgrass, Large plant response rating (crabgrass, large [13]): 90; Plant response rating, Ducksalad (ducksalad): 0; Morningglory plant response rating (0 to 100 scale) (morningglory [14]): 0; Morningglory plant response rating (morningglory [14]): 80; Barnyardgrass plant response rating (barnyardgrass [15]; [20]): 10; Barnyardgrass plant response rating (barnyardgrass [15]; [21]): 80; Plant response rating, Barnyardgrass (barnyardgrass [16]): 0; Barnyardgrass plant response rating (barnyardgrass [17]; [18]): 40; Barnyardgrass plant response rating (barnyardgrass [17]; [19]): 10
